We go through four molecules from patent US20090042818A1, “Liquiritigenin and Derivatives as Selective Estrogen Receptor Beta Agonists” (BIONOVO, INC., priority 2007, published 2009).

Molecules are shown by their SMILES. “Also recorded” adds a separate entry of the source.

For data set [1], the system named is ERα and ERβ. Conditions: cited from earlier work.
The test system of data set [2] is MCF-7 breast cancer cells. The experiment in a line: MCF-7 xenograft under kidney capsule of nude mice, tumor growth. The class given is in vivo. The conditions noted are these: 30 days; for tumor growth of MCF-7 grafts: subcutaneous osmotic pump, E2 0.4 mg, liquiritigenin 2 mg. How it is done:
(§1) MCF-7 (250,000) cells were aggregated in suspension and then resuspended in 200 μL neutralized collagen, as previously described (Parmar et al., Endocrinology 143:4886-4896 (2002). The cells were then grafted under the kidney capsule of nude mice as described and illustrated in detail at: http://mammary.nih.gov/tools/mousework/Cunha001/index.html. Five mice per group were treated with a continuous infusion using osmotic pumps (Alzet, Cupertino, Calif.) containing vehicle, E2 (0.4 mg) or liquiritigenin (2 mg) that infused 2.5 μl/h for 1 month. After one month of treatment, the tumors and uteri were removed and analyzed. These animal studies were carried out with approval from the University of California, San Francisco Committee on Animal Research. The major concern with estrogens for menopausal symptoms is the proliferation of breast and endometrial cells causing an increased risk for breast and uterine cancer. To determine if liquiritigenin has a proliferative effect on breast cancer and endometrial cells, MCF-7 breast cancer cells were grafted under the kidney capsule of nude mice. Using a subcutaneous osmotic pump designed to deliver a steady dose of drug, the mice were treated for 30 days with vehicle, E2, or liquiritigenin.

In data set [3] the test system is mammary and uterine tissue. The conditions noted are these: rat, in vivo; cited from earlier work.
The target of data set [4] is T1, androgen receptor (AR) (Homo sapiens, UniProt P10275).
T1 sequence (P10275 1-920): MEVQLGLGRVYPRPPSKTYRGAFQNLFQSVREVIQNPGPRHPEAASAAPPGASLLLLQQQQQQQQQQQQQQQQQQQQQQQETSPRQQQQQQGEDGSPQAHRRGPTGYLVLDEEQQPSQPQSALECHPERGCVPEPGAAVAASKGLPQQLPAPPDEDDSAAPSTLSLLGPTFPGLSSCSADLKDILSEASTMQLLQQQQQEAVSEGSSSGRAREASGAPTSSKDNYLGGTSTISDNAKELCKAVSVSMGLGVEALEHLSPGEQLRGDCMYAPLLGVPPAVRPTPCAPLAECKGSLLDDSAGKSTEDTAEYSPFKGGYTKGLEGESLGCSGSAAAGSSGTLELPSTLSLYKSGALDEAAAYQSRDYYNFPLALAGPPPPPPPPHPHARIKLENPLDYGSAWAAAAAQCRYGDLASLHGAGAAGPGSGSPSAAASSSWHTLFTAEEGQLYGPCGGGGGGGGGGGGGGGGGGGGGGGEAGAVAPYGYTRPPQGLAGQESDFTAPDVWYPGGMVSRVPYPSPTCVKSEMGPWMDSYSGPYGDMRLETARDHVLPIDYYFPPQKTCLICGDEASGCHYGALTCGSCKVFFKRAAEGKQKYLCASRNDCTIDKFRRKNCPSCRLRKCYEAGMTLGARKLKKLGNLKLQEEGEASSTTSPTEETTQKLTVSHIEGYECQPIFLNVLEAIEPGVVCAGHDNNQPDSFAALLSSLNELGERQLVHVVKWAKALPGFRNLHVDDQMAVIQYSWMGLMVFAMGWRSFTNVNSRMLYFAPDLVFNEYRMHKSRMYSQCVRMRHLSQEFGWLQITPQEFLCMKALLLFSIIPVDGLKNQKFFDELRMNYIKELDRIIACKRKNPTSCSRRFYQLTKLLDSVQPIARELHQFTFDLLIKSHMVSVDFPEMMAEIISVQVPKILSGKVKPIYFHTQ
The experiment in a line: TAT3-luciferase transfection assay with androgen receptor in U2OS cells. The conditions noted are these: 2.5 μM, 18 h.

Data set [5] has as its target T2, ERα (Homo sapiens, UniProt P03372).
T2 sequence (P03372 1-595): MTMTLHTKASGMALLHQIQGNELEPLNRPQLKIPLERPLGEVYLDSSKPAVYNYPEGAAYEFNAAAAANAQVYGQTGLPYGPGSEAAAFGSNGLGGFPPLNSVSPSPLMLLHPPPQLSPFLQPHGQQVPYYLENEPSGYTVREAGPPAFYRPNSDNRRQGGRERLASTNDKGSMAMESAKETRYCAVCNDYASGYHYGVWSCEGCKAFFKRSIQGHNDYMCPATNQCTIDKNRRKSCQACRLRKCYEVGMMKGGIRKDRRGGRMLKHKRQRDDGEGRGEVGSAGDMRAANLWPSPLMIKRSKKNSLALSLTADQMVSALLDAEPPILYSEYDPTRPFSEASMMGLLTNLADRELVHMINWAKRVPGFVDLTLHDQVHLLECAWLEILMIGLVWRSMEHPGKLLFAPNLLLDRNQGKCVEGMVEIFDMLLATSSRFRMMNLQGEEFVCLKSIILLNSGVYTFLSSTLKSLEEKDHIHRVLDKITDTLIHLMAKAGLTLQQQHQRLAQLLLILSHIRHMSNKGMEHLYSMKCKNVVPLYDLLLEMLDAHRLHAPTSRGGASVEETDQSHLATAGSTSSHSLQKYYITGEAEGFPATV
The experiment in a line: Native ER regulatory element (CECR6, NKG2E, NKD) tk-Luc transfection assay with ERα. Also noted: expressed in transfected cells; host or cells: U2OS. The class given is cell-based. The text has this: In addition to the traditional ERE, it is important to determine if liquiritigenin selectivity activates ERβ in elements derived from native ER target genes. ER regulatory elements from the cat eye syndrome chromosome region candidate 6 (CECR6), killer cell lectin-like receptor (NKG2E) and the naked cuticule homolog (NKD) genes that are activated by E2 Levy et al., Endocrinology doi:10.1210/en.2006-1632 (2007)) were used. CECR6-tk-Luc (A), NKG2E-tk-Luc (B), and NKD-tk-Luc (C) were transfected into U2OS cells with expression vectors for human ERα or ERβ. […] Liquiritigenin produced a dose-dependent activation of CECR6, NKG2E, and NKD with ERβ but not with ERα (FIGS. 4A, 4B, 4C, respectively). The cells were then treated for increasing times with liquiritigenin.

Data set [6] deals with T3, glucocorticoid receptor (GR) (Homo sapiens, UniProt P04150).
T3 sequence (P04150 1-777): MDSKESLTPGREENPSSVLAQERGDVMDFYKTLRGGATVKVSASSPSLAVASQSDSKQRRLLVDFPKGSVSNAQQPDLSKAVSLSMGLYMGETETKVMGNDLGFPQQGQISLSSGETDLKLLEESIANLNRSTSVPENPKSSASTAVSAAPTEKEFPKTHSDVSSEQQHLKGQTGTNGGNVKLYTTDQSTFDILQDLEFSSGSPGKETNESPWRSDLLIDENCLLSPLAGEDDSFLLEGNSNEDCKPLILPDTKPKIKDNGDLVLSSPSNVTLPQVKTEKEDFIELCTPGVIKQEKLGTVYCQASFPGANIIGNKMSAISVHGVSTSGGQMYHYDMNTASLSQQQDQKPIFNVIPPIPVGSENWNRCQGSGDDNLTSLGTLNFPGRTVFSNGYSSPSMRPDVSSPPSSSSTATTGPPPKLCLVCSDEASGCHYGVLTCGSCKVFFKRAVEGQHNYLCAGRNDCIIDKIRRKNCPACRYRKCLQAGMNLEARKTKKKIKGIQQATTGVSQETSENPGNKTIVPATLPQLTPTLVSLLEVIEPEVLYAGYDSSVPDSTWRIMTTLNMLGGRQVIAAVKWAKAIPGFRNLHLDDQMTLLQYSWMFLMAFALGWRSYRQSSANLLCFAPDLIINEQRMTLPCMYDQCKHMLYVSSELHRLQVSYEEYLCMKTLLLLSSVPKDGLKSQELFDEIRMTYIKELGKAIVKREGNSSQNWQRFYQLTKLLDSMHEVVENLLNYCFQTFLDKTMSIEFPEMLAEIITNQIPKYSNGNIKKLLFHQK
As to the kind of experiment: MMTV-luciferase transfection assay with glucocorticoid receptor in U2OS cells. Conditions: 2.5 μM, 18 h.

Data set [7] has as its system uterus. The experiment in a line: MCF-7 xenograft study in nude mice, uterine horn mass. Conditions: osmotic pump, 30 days, E2 0.4 mg, liquiritigenin 2 mg. The class given is in vivo. The protocol: as §1
For data set [8], the target named is T4, progesterone receptor B (PR) (Homo sapiens, UniProt P06401).
T4 sequence (P06401 1-933): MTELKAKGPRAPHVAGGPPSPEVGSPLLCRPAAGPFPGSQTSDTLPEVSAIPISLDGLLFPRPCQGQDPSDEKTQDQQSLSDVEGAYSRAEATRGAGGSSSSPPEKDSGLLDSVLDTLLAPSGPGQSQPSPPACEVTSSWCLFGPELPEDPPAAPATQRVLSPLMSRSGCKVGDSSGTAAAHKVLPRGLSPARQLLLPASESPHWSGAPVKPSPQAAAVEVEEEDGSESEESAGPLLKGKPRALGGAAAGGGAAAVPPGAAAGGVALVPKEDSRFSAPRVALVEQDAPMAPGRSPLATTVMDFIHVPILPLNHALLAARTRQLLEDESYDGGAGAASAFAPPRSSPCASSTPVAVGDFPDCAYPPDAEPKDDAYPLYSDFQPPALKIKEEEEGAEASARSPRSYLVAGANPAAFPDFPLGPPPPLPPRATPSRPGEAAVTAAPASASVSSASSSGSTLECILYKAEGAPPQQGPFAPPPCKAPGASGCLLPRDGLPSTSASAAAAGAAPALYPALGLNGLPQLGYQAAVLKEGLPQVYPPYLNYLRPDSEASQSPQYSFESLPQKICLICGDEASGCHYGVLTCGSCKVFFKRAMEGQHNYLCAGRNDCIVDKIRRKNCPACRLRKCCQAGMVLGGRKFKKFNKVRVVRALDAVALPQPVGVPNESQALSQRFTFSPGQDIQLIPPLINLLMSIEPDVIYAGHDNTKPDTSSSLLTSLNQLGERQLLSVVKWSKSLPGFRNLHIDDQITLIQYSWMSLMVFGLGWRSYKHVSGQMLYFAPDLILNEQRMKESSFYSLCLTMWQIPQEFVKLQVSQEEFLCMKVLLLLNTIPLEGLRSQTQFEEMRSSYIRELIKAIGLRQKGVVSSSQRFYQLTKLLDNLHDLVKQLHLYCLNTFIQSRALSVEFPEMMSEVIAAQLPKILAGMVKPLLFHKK
The experiment in a line: TAT3-luciferase transfection assay with progesterone receptor B in U2OS cells. The conditions noted are these: 2.5 μM, 18 h.

The target in data set [9] is T5, thyroid hormone receptor β1 (TR) (Homo sapiens, UniProt P10828).
T5 sequence (P10828 1-461): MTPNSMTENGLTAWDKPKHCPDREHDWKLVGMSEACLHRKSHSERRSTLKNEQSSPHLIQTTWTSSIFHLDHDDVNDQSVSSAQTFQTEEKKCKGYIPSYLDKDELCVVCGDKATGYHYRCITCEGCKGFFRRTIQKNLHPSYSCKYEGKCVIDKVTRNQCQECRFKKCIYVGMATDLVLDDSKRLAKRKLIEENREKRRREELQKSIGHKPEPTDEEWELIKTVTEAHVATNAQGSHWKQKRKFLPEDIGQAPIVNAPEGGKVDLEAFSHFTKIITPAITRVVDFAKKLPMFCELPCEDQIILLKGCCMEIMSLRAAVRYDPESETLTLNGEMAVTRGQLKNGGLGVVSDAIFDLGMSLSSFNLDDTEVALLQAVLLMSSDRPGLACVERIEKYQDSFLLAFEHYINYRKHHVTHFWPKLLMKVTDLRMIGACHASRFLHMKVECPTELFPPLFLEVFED
As to the kind of experiment: F2-tkLuc transfection assay with thyroid hormone receptor β1 in U2OS cells. Conditions: 2.5 μM, 18 h.

For data set [10], the target named is T2, ERα. As to the kind of experiment: Real-time PCR of native target gene mRNA in U2OS-ERα cells. The data set is classed as cell-based. Also noted: expressed in transfected cells. The conditions noted are these: 1 μM.
Setting [11] is: U2OS cells, 18 h, increasing amounts.

On to `C[C@]12CC[C@@H]3c4ccc(O)cc4CC[C@H]3[C@@H]1CC[C@@H]2O` [E2, 17β-Estra-1,3,5(10)-triene-3,17-diol, reference compound], for which the “binding affinity to ERβ compared to ERα” value in [1] is recorded as “equal affinity”. Also, in data set [2], the “tumor growth of MCF-7 grafts” value was “Large tumors developed; also recorded: causes the formation of large tumors”.
In the case of `C=Cc1cc(O)cc2nc(-c3ccc(O)c(F)c3)oc12` [ERβ-041], in data set [3], the “proliferative effects on mammary and uterine tissue” value is “does not elicit any proliferative effects”.
Turning to `O=c1c(-c2ccc(O)cc2)coc2cc(O)cc(O)c12` [genistein], the “binding affinity to ERβ compared to ERα” value in [1] is “higher affinity; also recorded: binds better to ERβ than ERα”.
For the molecule `O=C1C[C@@H](c2ccc(O)cc2)Oc2cc(O)ccc21` [liquiritigenin, (2S)-7-hydroxy-2-(4-hydroxyphenyl)-2,3-dihydro-4H-1-benzopyran-4-one], the “activation of androgen receptor (luciferase)” value in data set [4] was “did not activate”. Also, the “activation of multiple ER regulatory elements” value in data set [5] (1 μM, ERα) was “does not activate”. For the same molecule, in data set [5] (setting [11]), the “activation of CECR6-tk-Luc with ERα” value is given as “not with ERα” and the “activation of NKD-tk-Luc with ERα” value is recorded as “not with ERα”. For the same molecule, the “activation of glucocorticoid receptor (luciferase)” value in [6] was “did not activate”. In data set [7], the uterine horn mass entry is reported as “did not increase uterine horn mass”. In addition, the uterine horn mass entry in [7] (listed as liquirtigenin) is “does not increase the size of the uterus”. Besides, the “activation of progesterone receptor B (luciferase)” value in [8] is given as “did not activate”. Besides, the “weight of the tumors compared to the control mice” value in data set [2] (osmotic pump, 2 mg) is “no differences in the weight of the tumors”. Also, the “tumor growth of MCF-7 grafts” value in data set [2] is on record as “essentially no tumor growth; also recorded: does not stimulate breast cancer tumor formation”. Further, the “activation of thyroid hormone receptor (luciferase)” value in [9] is given as “did not activate”. Moreover, the “activation of endogenous genes in U2OS-ERα cells” value in data set [10] was “does not activate”.
